Measured values reported in PubChem BioAssay AID504645 (Southern Research Specialized Biocontainment Screening …, 2011).
Where “and” joins values, the source holds several entries; their conditions need not be identical. Equal values may be shown once. Calls of active or inactive are those of the source. How the calls were made is not given here. Where a SMILES comes first, the peptide text is derived from it. The star is where a group is joined. Cbz = O=C(OCc1ccccc1)*

Experiments:
[1] = test system: M. tuberculosis H37Rv growth inhibition, glycerol-free medium; experiment: M tuberculosis H37Rv growth inhibition in absence of glycerol, confirmatory, IC90 (AID 504645); conditions: for IC90: measured here: 90% growth inhibition;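 on all read-outs here: bacteria grown one week before the viability dye was added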
[2] = as above; conditions: M. tuberculosis H37Rv growth inhibition, glycerol-free medium; at 25 µM (top of the series)

| Compound | IC50 [1] | IC90 [1] | inhibition [2] |
| --- | --- | --- | --- |
| Cc1cc(Br)ccc1NC(=O)c1cnc(N2CCN(c3ccccn3)CC2)c2ccccc12 | 1.25 µM | 2 µM | – |
| CC1CCCN(C(=O)c2ccc(CNc3c(N4CCCCC4)c(=O)c3=O)cc2)C1 (stereo unspecified) | 2.58 µM | > 25 µM | – |
| COC(=O)C(C)Oc1ccc(Cc2ncc(C(F)(F)F)cc2Cl)cc1 (stereo unspecified) | 2.62 µM | 4.01 µM | – |
| COC(=O)C(C)Oc1ccc(-c2nccc(-c3ccccn3)n2)cc1 (stereo unspecified) | 2.64 µM | 4.53 µM | – |
| CCOC(=O)N1CCC(Nc2c(Nc3cccc(CC)c3)c(=O)c2=O)CC1 | – | – | 11.5% (inactive) |
| Cc1[nH]c(=S)[nH]c(=O)c1C | – | – | -1.69% (inactive) |
| O=C(C1CCC(CNc2c(N3CCCCC3)c(=O)c2=O)CC1)N1CCCCC1 (stereo unspecified) | – | – | 1.49% (inactive) |
| Cc1cccc(/C=C/C(=O)c2ccc([N+](=O)[O-])o2)c1 | 0.45 µM | 0.65 µM | – |
| CCOC(=O)CNC(=O)[C@H](Cc1ccccc1)NC(=O)OCc1ccccc1 (Cbz-Phe-Gly-OEt) | 2.15 µM | 3.09 µM | – |
| CCOC(=O)CSc1ncnc2c1nnn2-c1ccc(F)cc1 | 3.64 µM | 6.16 µM | – |
| CCc1cc(=O)[nH]c(SCC(=O)Nc2ccc3c(c2)OCCO3)n1 | – | – | 5.24% (inactive) |
| CCc1c(C)nc(SCC(=O)Nc2ccc3c(c2)OCCO3)[nH]c1=O | 19.4 µM | > 25 µM | – |
| O=C(/C=C\c1cccs1)N1CCN(Cc2ccc3c(c2)OCO3)CC1 | 0.36 µM | 1.57 µM | – |
| CC(C)CCNC(=O)CSc1nc2ccccc2c(=O)[nH]1 | 2.31 µM | 3.83 µM | – |
| Cc1cc(=O)[nH]c(SCC(=O)Nc2ncc(S(=O)(=O)c3ccc([N+](=O)[O-])cc3)s2)n1 | – | – | 2.85% (inactive) |
| CCOC(=O)CSc1ncnc2c1cnn2-c1ccccc1 | 13.1 µM | > 25 µM | – |
| CCOc1ccc2nc(NC(=O)C(CC)Sc3nc(C)cc(=O)[nH]3)sc2c1 (stereo unspecified) | – | – | 4.79% (inactive) |
| C=CCn1c(SCC(=O)Nc2cccc3ccccc23)nc(O)c(CC)c1=O | – | – | 6.9% (inactive) |
| COc1ccc(-c2noc(CSc3nc(N)c(-c4ccccc4)c(=O)[nH]3)n2)cc1OC | – | – | 3.69% (inactive) |
| Cc1cc(C)n2nc(N)c(N=Nc3ccccc3)c2n1 | 2.49 µM | 3.56 µM | – |
| CCOC(=O)CSc1ncnc2c1cnn2-c1ccc(C)cc1C | 4.49 µM | 6.98 µM | – |
| O=C(CSc1nc2ccccc2c(=O)[nH]1)NCc1ccc(Cl)cc1 | 0.63 µM and 2.19 µM | 0.9 µM and 3.16 µM | – |
| COc1ccc(-n2nnc3c(SCC(=O)OCc4ccccc4)ncnc32)cc1 | 2.81 µM | > 25 µM | – |

| Compound | IC50 [1] | IC90 [1] | inhibition [2] |
| --- | --- | --- | --- |
| Cc1nc(SCC(=O)NC2CCCC2)[nH]c(=O)c1C | 9.96 µM | 16 µM | – |
| COC(=O)CSc1ncnc2c1cnn2-c1ccc(C)cc1C | 4.5 µM | 6.95 µM | – |
| CN(C(=O)CSc1nc2ccccc2c(=O)[nH]1)C1CCCCC1 | – | – | 3.96% (inactive) |
| S=c1nc[nH]c2nc[nH]c12 | 1.48 µM | 1.72 µM | – |
| CCOC1OC(=O)C(Cl)=C1Nc1ccccc1C (stereo unspecified) | 2.26 µM | 5.59 µM | – |
| Nc1c(C(=O)NC2CCCCC2)nsc1C(=O)OCC(=O)NC1CCCCC1 | 1.23 µM | 2.64 µM | – |
| Cc1cccc(N2CCN(C(=O)c3ccc(CNc4c(N5CCC(C)CC5)c(=O)c4=O)cc3)CC2C)c1 (stereo unspecified) | – | – | 4.48% (inactive) |
| CCC(C)Nc1ccc(NC(C)CC)cc1 (stereo unspecified) | 1.27 µM | 1.94 µM | – |
| CCOC(=O)CSc1ncnc2c1cnn2-c1ccc(C)cc1 | 10.1 µM | > 25 µM | – |
| CC1CCN(C(=O)CSc2nc3ccccc3c(=O)[nH]2)CC1 | – | – | -0.18% (inactive) |
| CCC(Sc1ncnc2c1nnn2-c1ccc(F)cc1)C(=O)OC (stereo unspecified) | 11.9 µM | > 25 µM | – |
| Cc1cccc(N2CCN(C(=O)c3ccc(CNc4c(N5CCC(C)CC5)c(=O)c4=O)cc3)CC2)c1C | – | > 25 µM | – |
| Cc1ccc(NC(=O)C2C3/C=C\CCCCC32)cc1C (stereo unspecified) | 1.72 µM | > 25 µM | – |
| COC(=O)C(C)Sc1ncnc2c1nnn2-c1ccc(F)cc1 (stereo unspecified) | 2.42 µM | 4.38 µM | – |
| COC(=O)c1cc(=O)n(-c2ccc(F)cc2)c(=Nc2ccc(F)cc2)s1 | 0.64 µM | 1 µM | – |
| CCOc1ccc(NC(=O)CSc2nc(O)c(C)c(=O)n2-c2ccc(F)cc2)cc1 | – | > 25 µM | – |
| CC(=O)c1ccc(NC(=O)c2ccc(CNc3c(N4CCOCC4)c(=O)c3=O)cc2)cc1 | 20 µM | > 25 µM | – |
| O=C(c1ccc(CNc2c(N3CCCC3)c(=O)c2=O)cc1)N1CCN(C2CCCCC2)CC1 | – | > 25 µM | – |
| O=C(c1ccc(CNc2c(N3CCCC3)c(=O)c2=O)cc1)N1CCc2ccccc2C1 | 4.37 µM | > 25 µM | – |
| O=c1[nH]c(=S)[nH]c2ccccc12 | – | – | -4.53% (inactive) |
| COc1ccc(N2CCN(C(=O)c3ccc(CNc4c(N5CCOCC5)c(=O)c4=O)cc3)CC2)cc1 | 3.41 µM | > 25 µM | – |
| CC1CCN(C(=O)C2CCN(c3nnc(-n4cccc4)s3)CC2)CC1 | 1.64 µM | 3.34 µM | – |
| COC(=O)CCc1nc2c(C#N)c(-c3ccc(Cl)cc3)ccn2n1 | 2.54 µM | 3.8 µM | – |

| Compound | IC50 [1] | IC90 [1] | inhibition [2] |
| --- | --- | --- | --- |
| COC(=O)C(Nc1nc(SCC(=O)NC2CCCCC2)nc2ccccc12)c1ccccc1 (stereo unspecified) | – | – | -2.65% (inactive) |
| CNc1nc(SCc2ccccc2Cl)nc2c1CCCC2 | 1.08 µM | 2.33 µM | – |
| CCCc1cc(=O)[nH]c(SCC(=O)Nc2cc3c(cc2C(C)=O)OCO3)n1 | – | – | 9.03% (inactive) |
| COc1ccc(NC(=O)CSc2nc(NS(=O)(=O)c3ccc(C)cc3)cc(=O)[nH]2)cc1 | – | – | 1.34% (inactive) |
| CCOC(=O)CSc1ncnc2c1cnn2-c1ccc(Cl)cc1 | 4.98 µM | > 25 µM | – |
| Cc1c[nH]c(=S)[nH]c1=O | – | – | 3.09% (inactive) |
| O=C1C(Br)=Cc2cccc3cccc1c23 | 0.35 µM | 1.13 µM | – |
| O=C(CSc1nc2c(c(=O)[nH]1)CCC2)Nc1ccc(F)cc1 | 17.1 µM | > 25 µM | – |
| Cc1cc(=O)[nH]c(=S)[nH]1 | – | – | 3.98% (inactive) |
| CC(NC(=O)CSc1nc2ccccc2c(=O)[nH]1)c1ccccc1 (stereo unspecified) | – | – | 1.63% (inactive) |
| CC(=NCc1ccc2c(c1)OCO2)C1=C(O)c2ccccc2C1=O | 0.33 µM | 2.35 µM | – |
| O=C(c1ccc(CNc2c(N3CCCC3)c(=O)c2=O)cc1)N1CC=C(c2ccccc2)CC1 | 2.52 µM | 6.76 µM | – |
| O=C(NCCc1ccc(Cl)cc1)C1CCC(CNc2c(N3CCCCC3)c(=O)c2=O)CC1 (stereo unspecified) | – | – | 14.2% (inactive) |
| CCc1ccc(/C=C2/C(=O)N(C)C(=S)N2CC(=O)OC)s1 | 1.91 µM | 4.61 µM | – |
| CCC(Sc1nc(=O)cc(N)n1-c1ccccc1)C(=O)Nc1cc(C)on1 (stereo unspecified) | – | – | 3.38% (inactive) |
| Cc1nc(SCc2ccccc2Cl)[nH]c(=O)c1C | – | – | -3.47% (inactive) |
| CCOC(=O)c1ccc(NC(=O)Cn2ncc(Cl)c(Cl)c2=O)cc1 | 0.44 µM | 1.17 µM | – |
| O=C(NCC(c1cccs1)N1CCOCC1)c1cc([N+](=O)[O-])cc([N+](=O)[O-])c1 (stereo unspecified) | 0.41 µM | 0.91 µM | – |
| CC1CCN(C(=O)c2ccc(CNc3c(N4CCCC4)c(=O)c3=O)cc2)CC1 | 5.85 µM | 6.69 µM | – |
| CC(C)OC(=O)CSc1ncnc2c1cnn2-c1ccccc1 | 17.9 µM | > 25 µM | – |
| CCOC(=O)COc1ccc(/C=C2\NC(=S)N(CC)C2=O)cc1 | 2.62 µM | 4.74 µM | – |
| Cc1nc(SCC(=O)NC2CCCCC2)[nH]c(=O)c1C | 0.67 µM and 2.39 µM | 1.07 µM and 3.73 µM | – |
| Cc1ccc2c(c1)c(C1=c3ccccc3=NC1=O)c(O)n2C | 1.46 µM | 3.61 µM | – |

| Compound | IC50 [1] | IC90 [1] | inhibition [2] |
| --- | --- | --- | --- |
| Cc1ccc(NC(=O)COC(=O)CCc2c[nH]c3ccccc23)cc1[N+](=O)[O-] | 1.92 µM | 4.35 µM | – |
| Cc1nn2c(NCc3ccccn3)cc(C(C)C)nc2c1-c1ccccc1 | 1.97 µM | 2.54 µM | – |
| O=C(NCCc1ccc(Cl)cc1)c1ccc(CNc2c(N3CCOCC3)c(=O)c2=O)cc1 | 5.06 µM | 6.95 µM | – |
| CCOC(=O)COn1c2c(c3c4no[n+]([O-])c4ccc31)CCCC2 | 1.85 µM | 2.86 µM | – |
| CC1CC(C)CN(C(=O)c2ccc(CNc3c(N4CCCC4)c(=O)c3=O)cc2)C1 (stereo unspecified) | 6.34 µM | > 25 µM | – |
| c1ccc(/N=C2\N=C(Nc3ccccn3)c3ccccc32)nc1 | 0.17 µM | 0.29 µM | – |
| O=C(c1ccc(CNc2c(N3CCOCC3)c(=O)c2=O)cc1)N1CC=C(c2ccccc2)CC1 | 1.11 µM | 2.17 µM | – |
| CCc1c(C)nc(SCC(=O)NC2CCCC2)[nH]c1=O | 2.25 µM | 3.21 µM | – |
| CCOc1ccc(-c2cc(C)[n+](CCc3ccc(OC)c(OC)c3)c(-c3ccc(OCC)cc3)c2)cc1 | 0.66 µM | 1.03 µM | – |
| O=C(/C=C/c1ccccc1)N1CCN(CCN2C(=O)c3cccc4cccc(c34)C2=O)CC1 | 2.07 µM | 5.38 µM | – |
| CC1CC(C)CN(C(=O)C2CCC(CNc3c(N4CCCCC4)c(=O)c3=O)CC2)C1 (stereo unspecified) | 13.3 µM | > 25 µM | – |
| Cc1ccc(C(=O)N/N=C(/CC(=O)c2cccs2)C(F)(F)F)cc1 | 2.1 µM | 2.81 µM | – |
| COC(=O)C1CC(=O)N(c2ccc(OCc3ccccc3Cl)cc2)C1 (stereo unspecified) | 0.75 µM | 3.01 µM | – |
| CC[N+](C)(CC)CCCCOc1ccc2c(c1)C(=O)c1cc(OCCCC[N+](C)(CC)CC)ccc1-2 | 1.32 µM | 2.13 µM | – |
| CCOC(=O)C(C)Sc1ncnc2c1nnn2-c1ccc(F)cc1 (stereo unspecified) | 1.2 µM and 4.55 µM | 2.92 µM and 8.28 µM | – |
| COc1cc(NC(=O)C/C(C)=N/NC(=O)c2ccccn2)c(OC)cc1Cl | 2.78 µM | 7.91 µM | – |
| CC(C)NC(=O)c1sc(=S)n2c1[nH]c(=O)c1ccc(C(=O)NCCc3ccc(Cl)cc3)cc12 | 0.31 µM | 0.53 µM | – |
| O=C(CSc1nc2ccccc2c(=O)[nH]1)NC1CCCCC1 | 0.07 µM | 0.13 µM | – |
| CC1CCCN(C(=O)C2CCC(CNc3c(N4CCCCC4)c(=O)c3=O)CC2)C1 (stereo unspecified) | 19 µM | > 25 µM | – |
| Cc1cccc(-c2oc3ccc(-c4ccc5c(c4)OCO5)cc3c2C#Cc2cncn2C)c1 | 1.38 µM | 1.86 µM | – |
| Cc1ccc2ccc3ccc(C)nc3c2n1 | 0.53 µM | 0.78 µM | – |
